Test results published in US8513250B2 (Laboratoire Biodim, priority 2007, dated 2013).
Read-outs that look alike come from different tables or passages of the source.

Key:
DltA enzyme = molecular target: T1, DltA enzyme (Streptococcus agalactiae serotype III, UniProt Q8VM67); test: DltA HTS assays (luminescent / fluorescent), inhibition of DltA enzymatic activity in vitro; type: biochemical, S. agalactiae; settings: Table 1; DltA inhibition, HTS assays of method 1; read-out: IC50
T1 construct: His-tag (from pET100 vector) (N); made in house; host or cells: E. coli BL21 (DE3) Star
T1 sequence (Q8VM67 1-511): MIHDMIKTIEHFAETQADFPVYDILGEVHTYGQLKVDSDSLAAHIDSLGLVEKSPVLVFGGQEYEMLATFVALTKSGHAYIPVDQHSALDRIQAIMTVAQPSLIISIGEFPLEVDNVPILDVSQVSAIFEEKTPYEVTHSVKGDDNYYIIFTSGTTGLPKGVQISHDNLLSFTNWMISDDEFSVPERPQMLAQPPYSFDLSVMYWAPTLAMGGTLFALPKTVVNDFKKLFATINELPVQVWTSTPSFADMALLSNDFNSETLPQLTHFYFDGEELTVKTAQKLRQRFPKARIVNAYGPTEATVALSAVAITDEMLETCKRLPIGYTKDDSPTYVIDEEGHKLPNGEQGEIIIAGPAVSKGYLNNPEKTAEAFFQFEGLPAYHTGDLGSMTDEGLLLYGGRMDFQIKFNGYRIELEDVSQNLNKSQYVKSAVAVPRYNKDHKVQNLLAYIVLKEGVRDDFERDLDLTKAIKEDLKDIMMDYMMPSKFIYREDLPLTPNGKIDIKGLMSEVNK
Description: The compounds effect on DltA enzyme has been based on the measure of the inhibition of DltA activity in vitro.
To this end, a recombinant protein Dlta was expressed and purified after cloning of the gene of S. agalatiae as described below:
Methods 1: DltA HTS Assays
The assay described below makes use of dithiothreitol (DTT) instead of DltC as reactive thiol in the catalyzed reaction. In fact, the inventors have shown that DTT, but also Coenzyme A and N-Acetylcysteamine are all thiols able to replace efficiently DltC. In addition, contrary to the prior art, radioactivity is not used: all the assays are based either on luminescent ATP detection, or on fluorescent AMP detection. They are easily amenable to miniaturized formats and fast readouts as required by HTS.
The assay buffer “AB” contains 50 mM Hepes pH8.0, 10 mM MgCl2, 50 mM KCl, 0.012% Triton-X100. The following components are added in a white polystyrene Costar plate up to a final volume of 30 μL: 3 μL DMSO, or inhibitor dissolved in DMSO and 27 μL DltA enzyme and DTT in AB. After 30 min of pre-incubation at room temperature, 30 μL of Substrates mix in AB are added in each well to a final volume of 60 μL. This reaction mixture is then composed of 10 nM DltA (produced in house from S. agalactiae), 0.5 mM D-Alanine (Sigma), 0.5 μM ATP (Sigma) and 1 mM DTT (Biochemika) in assay buffer. After 90 min of incubation at room temperature, 30 μL of the revelation mix are added to a final volume of 90 μL, including the following constituents at the respective final concentrations: 2 nM luciferase (Sigma), 30 μM D-luciferin (Sigma), 100 μM N-acetylcysteamine (Aldrich). Luminescence intensity is immediately measured on an Analyst-HT (Molecular Devices) and converted into inhibition percentages. For IC50 (Inhibitory Concentration 50%) determinations, the inhibitor is added at 6 to 10 different concentrations, and the related inhibitions are fitted to a classical langmuir equilibrium model using XLFIT (IDBS).
The assay buffer “AB” contains 50 mM Hepes pH8.0, 10 mM MgCl2, 50 mM KCl, 0.012% Triton-X100. The following components are added in a black polystyrene Costar plate up to a final volume of 50 μL: 5 μL DMSO, or inhibitor dissolved in DMSO and 45 μL DltA enzyme and DTT in AB. After 30 min of pre-incubation at room temperature, 50 μL of Substrates-revelation mix in AB are added in each well to a final volume of 100 μL. This reaction mixture is then composed of 5 nM DltA (produced in house from S. agalactiae), 0.5 mM D-Alanine (Sigma), 10 μM ATP (Sigma), 1 mM DTT (Biochemika), 10 nM Adenylate kinase (produced in house), 5 u/mL Pyruvate Kinase (Sigma), 50 μM phosphoenolpyruvate (Sigma), 5 u/mL Lactate deshydrogenase (Sigma) and 3 μM NADH (Sigma) in assay buffer. Fluorescence intensity of NADH (λex=360 nm, λem=520 nm) is immediately measured kinetically by a Fluostar Optima (BMG). Inhibition percentages are derived from fitted initial velocities. For IC50 determinations, the inhibitor is added at 6 to 10 different concentrations, and the related inhibitions are fitted to a classical langmuir equilibrium model using XLFIT (IDBS). FIG. 2 represents the data obtained using this method.
The capacity of compounds to inhibit DltA enzymatic activity was assessed using the DltA HTS assays described in method 1.

S. agalactiae NEM316 WT [1] = test: Minimal Antivirulent Concentration (MAC) assay, sensitization of bacteria to colistin; type: cell-based; settings: S. agalactiae wt strain, in presence of colistin 32 μg/ml, overnight, no visible growth
Description: The readout of the assay is called Minimum antivirulent concentration (MAC) and represents the minimal dose of compound for which no visible bacterial growth is observed in the presence of colistin at a subinhibitory concentration. MAC assay is described in Method 3 hereinafter.
Method 3: Assay for Minimal Antivirulent Concentration (MAC) and Minimal Inhibitory Concentration (MIC): Determination of Compounds Activity for Sensitization of Bacteria to Cationic Peptide (Colistin)
The Gram positive bacteria S. agalactiae NEM316 WT are grown on tryptic soy agar (TSA) broth over-night at 37° C. with air enriched with 5% CO2. Ten to fifteen colonies isolated from over-night growth on agar are then added to 10 ml of TS media to produce a standard suspension of organisms. This pre-culture is incubated at 37° C. with constant shaking during two to three hours to reach the exponential phase. This suspension is diluted to obtain a final inoculum of 1E+04 CFU/ml. Viable counts are obtained by plating 10 to 1000-fold dilutions of the suspension on TSA.
According to our standardized conditions, the final volume in the well is 100 μl in a 96-well microplate. Compounds are tested in a range of 1 to 32 μg/mL. Each well contains 2 μl of compound diluted in 100% DMSO, 48 μl of TS (microplate without colistin) or 48 μl of colistin in TS (final concentration of colistin is 32 μg/ml for S. agalactiae), then […] (final inoculum of 1 E+04 CFU/ml). Final concentration of DMSO is 2%. Positive growth control wells for each organism are prepared with and without colistin and DMSO 2% final concentration. S. agalactiae NEM316 Δdlt is used in control wells to verify the effect of the colistin on a sensitive strain.
The microplates are then incubated overnight at 37° C. with 5% CO2. Visible bacterial growth is finally quantified by unaided eye.
The MAC of each compound is derived from the experiment in presence of colistin and is defined as the minimal concentration of compound for which no bacterial visible growth is observed.

S. agalactiae NEM316 WT [2] = test: Minimal Inhibitory Concentration (MIC) assay, absence of colistin; type: cell-based; settings: Streptococcus agalactiae, NEM316WT
[3] = test system: S. agalactiae strain NEM316; test: Experimental model of systemic infection in mice, organ bacteraemia at 48 h; type: in vivo; settings: BALB/c mice, i.v. infection, compound intraperitoneal immediately after infection, spleen bacteraemia 48 h
Experimental: The effect of DltA inhibitors on the bacteria during an infection was assessed by injecting the molecules at different doses in group of mice that have received an infective dose of bacteria.
Description of Experimental Models Used to Assess the Efficacy of Inhibitors In Vivo:
Briefly, in vivo studies were performed using 4-5-week-old female BALB/c@Rj nice. S. agalactiae strain NEM316 bacteria were grown to exponential phase in broth culture. 200 μl of a bacterial suspension of 3.10^7 CFU/ml were administered by intravenous injection to groups of six mice (6.10^6 CFU/mouse). Exact inoculums counts were determined by plating 10-fold dilutions of the suspension on TH agar plates immediately after inoculation.
The compounds to be assessed are dissolved and diluted to obtain different concentration in a solution containing solutol; and 400 μl of each compound solution is injected intraperinonaly immediately after infection of the mouse. […]
The antibacterial effect obtained with different concentrations of compounds is measured by the level of bacteraemia observed at 48 H.
The graphs represent the average value of the organ bacteremia that is determined by the number of UFC/mg of organs (spleen) at 48 h post infection, obtained for each group of mice that have received different concentration of compounds (expressed in mg/kg). […]

[4] = test system: S. agalactiae strain NEM316; test: Colistin activity on wild type S. agalactiae; type: cell-based
Description: (§1) The peptide used was colistin which mimicks the effect of antibacterial cationic peptide of innate immunity. In common with other polymixins, colistin is rapidly bactericidal and exerts its effect by acting as a cationic detergent, causing disruption of the integrity of the bacterial cell membrane, with leakage of intracellular contents and cell death.

S. aureus strain 54.316 = test: Colistin activity on S. aureus; type: cell-based
Description: as §1

[5] = test system: dltA defective mutant of S. agalactiae; test: Colistin activity on dltA defective mutant; type: cell-based
Description: as §1

[6] = S. agalactiae wt strain, absence of colistin, overnight, no visible growth, read-out: MIC SAG wt

Compound | IC50 (DltA enzyme) [nM] | MAC (S. agalactiae NEM316 WT [1]) [µg/mL] | MIC (S. agalactiae NEM316 WT [2]; [6]) [µg/mL] | effective concentration [3] [mg/kg] | MIC ([4]; S. agalactiae strain NEM316 wild type) [µg/mL] | effect on the wild type strain growth ([4]; colistin 32 μg/ml, S. agalactiae wild type) | MIC (S. aureus strain 54.316) [µg/mL] | dose that can inhibit totally the growth [5] [µg/mL] | MIC (S. agalactiae NEM316 WT [2]; read-out: MIC SAG wt (μg/ml)) [µg/mL]
CC(C)(C)c1cc(-c2cnc3c(NCCCO)nc4cc(C(F)(F)F)ccc4n23)[nH]n1 [Example 36, 3-({1-[3-tert-butyl-1H-pyrazol-5-yl]-7-(trifluoromethyl)imidazo[1,2-a]quinoxalin-4-yl}amino)propan-1-ol] | 49 | 4 | > 32 | – | – | – | – | – | –
OCCCNc1nc2cc(C(F)(F)F)ccc2n2c(-c3ccn[nH]3)cnc12 [Example 19, 3-{[1-(1H-pyrazol-5-yl)-7-(trifluoromethyl)imidazo[1,2-a]quinoxalin-4-yl]amino}propan-1-ol] | 9 | 2 | > 32 | 10 | – | – | – | – | –
CCOC(=O)c1cc(-c2cnc3c(NCCCO)nc4cc(C(F)(F)F)ccc4n23)[nH]n1 [Example 47, 5-[4-(3-Hydroxy-propylamino)-7-trifluoromethyl-imidazo[1,2-a]quinoxalin-1-yl]-1H-pyrazole-3-carboxylic acid ethyl ester] | 35 | 8 | > 32 | – | – | – | – | – | –
CNC(=O)c1cc(-c2cnc3c(NCCCO)nc4cc(C(F)(F)F)ccc4n23)[nH]n1 [Example 50, 5-{4-[(3-hydroxypropyl)amino]-7-(trifluoromethyl)imidazo[1,2-a]quinoxalin-1-yl}-N-methyl-1H-pyrazole-3-carboxamide] | 38 | 8 | > 32 | – | – | – | – | – | –
colistin | – | – | – | – | ≥ 1024 | without effect | ≥ 1024 | 32 | –
OCCCNc1nc2cc(C(F)(F)F)ccc2n2c(-c3cccc(CO)c3)cnc12 [Example 16, 3-({1-[3-(hydroxymethyl)phenyl]-7-(trifluoromethyl)imidazo[1,2-a]quinoxalin-4-yl}amino)propan-1-ol] | 520 | 8 | > 32 | – | – | – | – | – | –
OCCCNc1nc2cc(OC(F)(F)F)ccc2n2c(-c3ccn[nH]3)cnc12 [Example 51, 3-{[1-(1H-pyrazol-5-yl)-7-(trifluoromethoxy)imidazo[1,2-a]quinoxalin-4-yl]amino}propan-1-ol] | 9 | 2 | > 32 | – | – | – | – | – | –
Cc1cc(-c2cnc3c(NCCCO)nc4cc(C(F)(F)F)ccc4n23)[nH]n1 [Example 39, 3-({1-[3-methyl-1H-pyrazol-5-yl]-7-(trifluoromethyl)imidazo[1,2-a]quinoxalin-4-yl}amino)propan-1-ol] | 13.5 | 8 | > 32 | – | – | – | – | – | –
OCCCNc1nc2cc(C(F)(F)F)ccc2n2c(-c3cnn[nH]3)cnc12 [Example 35, 3-{[1-(1H-1,2,3-triazol-5-yl)-7-(trifluoromethyl)imidazo[1,2-a]quinoxalin-4-yl]amino}propan-1-ol] | 270 | 2 | – | – | – | – | – | – | > 32
